This passage reports ED50 and LD50 results from patent US4738977A, “2-pyridylacetic acid derivatives, pharmaceutical composition containing the same and their use in treating ulcers” (Suntory Limited, priority 1985, dated 1988).

One data set concerns gastric acid secretion. Briefly: Action on Gastric Acid Secretion (Shay Rat, pylorus ligation). Format: in vivo, Sprague-Dawley strain male rats. Conditions: intraduodenal immediately after pylorus ligation, 4 h gastric juice. How it is done: (§1) For the pharmocological examination of the compounds of the present invention, the following tests were carried out to confirm the effect of inhibiting gastric acid secretion and the protective effect of gastric mucosa. For the toxicity, the test compound was orally administered to six mice of one group to determine the toxicity (LD50) thereof.
1. Action on Gastric Acid Secretion (Shay Rat)
Sprague-Dawley strain male rats weighing 200-240 g were used after being starved for 24 hours (water was given ad libitum). Under ether anesthesia, the abdomen was cut and, after ligation of the pylorus part, then closed, and the rat was starved of both food and water. Four hours later the stomach was removed under ether anesthesia and the gastric juice was collected. The gastric juice collected was centrifuged at 3000 rpm for 10 minutes, the volume of the supernatant was measured, and the acidity was determined by titrating 1 ml of the gastric juice with 0.1 N sodium hydroxide solution to pH 7.0. Further, from the amount of gastric juice and the acidity, the acid output (μEg/4h) was calculated; the percentage of inhibition was determined from the following formula, and the percentage of inhibition versus dose (mg/kg) was then plotted on a semi-logarithmic graph to determine the ED50 value. Each test drug was suspended in physiological saline with a few drops of Tween 80 (available from Nakarai Chemicals Ltd.,) and administered into the duodenum at a proportion of 0.2 ml/100 g-body weight immediately after pylorus ligation. [formula]

Data set [1] in a line: Anti-Aspirin Ulcer Action. Format: in vivo, Sprague-Dawley-strain male rats. Conditions: rat, into the duodenum, aspirin 150 mg/kg oral, 5 hours. The protocol:
3. Anti-Aspirin Ulcer Action
Sprague-Dawley-strain male rats weighing about 220 g were starved for 24 hours, and with pylorus being ligated under ether anesthesia, the test drug was administered into the duodenum. After recovery from ether anesthesia, 150 mg/kg of aspirin (suspended in 1% CMC) was orally administered. Five hours later, the stomach was removed under ether anesthesia, 10 ml of 2% formalin solution was injected into the stomach, and the stomach was then immersed in a 2% formalin solution for about 15 minutes. The stomach was then cut open along the greater curvature and the length of the damage generated at the glandular portion of the stomach was measured under dissecting microscope (×10) and the sum of the lengths per one rat (mm) was defined as the lesion index. The ED50 value was calculated as described before.

A short description of another data set: Anti Stress Ulcer. It is filed as in vivo, Sprague-Dawley-strain male rats. Conditions: rat, oral 30 minutes before water immersion stress at 23° C., 5 hours; read-out: Action on anti-stress ulcer (ED50). The protocol:
Sprague-Dawley-strain male rats weighing about 240-260 g were starved for 24 hours, and, 30 minutes after oral administration of the test drug, the rat was placed in a stress cage and stress was loaded by immersing the rat into a water tank maintained at 23° C. to the xiphisternum of the chest. Five hours later, the stomach was removed under ether anesthesia, the same treatment as in the case of aspirin ulcer was applied, and the sum of the lengths (mm) of the mucosa damage generated at the glandular portion of the stomach was defined as the lesion index. The ED50 value was calculated as described before.

A short description of data set [2]: Anti-Duodenal Ulcer Action. It is filed as in vivo, Sprague-Dawley-strain male rats. Conditions: rat, indomethacin plus histamine 2HCl. How it is done: 6. Anti-Duodenal Ulcer Action
Sprague-Dawley-strain male rats weighing 200-220 g were starved for 24 hours, and indomethacin (suspended in saline with Tween 80) and histamine 2HCl (dissolved in 10% gelatin solution) were administered following the time schedule shown below. Then, under ether anesthesis, stomach and the duodenal part were removed and 2% formalin solution was injected thereinto. Further, they were immersed in 2% formalin solution for about 15 minutes, and then cut open along the greater curvature to the duodenal part, and the number and area (length in the case of linear ulcer) of the mucosa damages generated at the Corpus, Antrum and Duodenum respectively were measured under stereoscopic microscope (×10), and the sum of the area (mm^2) per one rat was defined as lesion index. The ED50 value was calculated as described before. [drawing 32]

Another data set in a line: Toxicity (LD50) in mouse. Conditions: in vivo, oral, six mice of one group. How it is done: as §1
A short description of data set [3]: Action on Hydrochloric Acid Plus Ethanol Induced Ulcer. It is filed as in vivo, Sprague-Dawley strain male rats. Conditions: rat, oral 30 minutes before HCl-ethanol. The protocol: 2. Action on Hydrochloric Acid Plus Ethanol Induced Ulcer
Sprague-Dawley strain male rats weighing 200-240 g were used after starving for 24 hours. To each rat, a 60% ethanolic solution containing 150 mM of hydrochloric acid was administered orally at a volume of 0.5 ml/100 g-body weight, and the stomach was removed under ether anesthesia 1 hour later. Into the stomach, 10 ml of a 2% formalin solution was injected, and further the stomach was then immersed in a 2% formalin solution for 15 minutes to fix the inner and outer wall of the stomach. The stomach was cut open along the greater curvature, and the length of the damage generated at the glandular portion of the stomach was measured, and the sum of the lengths of the damages of gastric mucosa per one rat was defined as the lesion index (mm), which was compared with a control group to calculate the percentage of inhibition according to the formula shown below, and then the percentage of inhibition versus dose (mg/kg) was plotted on a semi-logarithmic graph to determine the ED50 value. Each test drug was suspended in physiological saline a few drops of Tween 80 and administered orally 30 minutes before administration of the hydrochloric acid ethanolic solution. [formula]

Another data set can be described thus: Toxicity (LD50) in rat. The following applies: in vivo, oral.
Data set [4] is described as follows: Anti-Indomethacin Ulcer Action. Conditions: rat, 30 minutes before indomethacin 30 mg/kg s.c., 5 hours. Format: in vivo, Sprague-Dawley-strain male rats. How it is done: 4. Anti-Indomethacin Ulcer Action
Sprague-Dawley-strain male rats weighing about 200-220 g were starved for 24 hours, and 30 mg/kg of indomethacin (suspended in 1% CMC) was administered subcutaneously. After five hours, the stomach was removed under ether anesthesia, and subsequently the same treatment as in the case of an aspirin ulcer was carried out and the sum of the length (mm) of the damage produced at the glandular portion of the stomach per one rat was defined as lesion index. The test drug was administered 30 minutes before administration of indomethacin. The ED50 value was calculated as described before.

Molecules are shown by their SMILES.

The term ED50 denotes the midpoint of the dose-response relation. In the data set with gastric acid secretion, `CCCNC(=S)C(C(=O)OCC)c1ccccn1` (stereo not drawn) [Example 19, Ethyl 2-propylthiocarbamoyl-2-(2-pyridyl)acetate] yielded an ED50 of 3.8 mg/kg.
By LD50 is commonly meant the dose expected to kill half of the subjects tested. As to `CC(C)=CCC/C(C)=C/COC(=O)C(C(N)=S)c1ccccn1` (stereo not drawn) [Example 17, geranyl 2-thiocarbamoyl-2-(2-pyridyl)acetate], the ED50 worked out at 1 mg/kg in data set [1]; 4.2 mg/kg in the data set “Anti Stress Ulcer”; 1 mg/kg in data set [2]; 5.3 mg/kg with gastric acid secretion; 2.8 mg/kg in data set [3]. The results for the LD50 in “Toxicity (LD50) in mouse” and in the data set “Toxicity (LD50) in rat” were more than 2000 mg/kg and more than 2860 mg/kg, respectively.
`CCNC(=S)C(C(=O)OCC)c1ccccn1` (stereo not drawn) [Example 2, Ethyl 2-ethylthiocarbamoyl-2-(2-pyridyl)acetate]: the median effective dose (ED50) came to 4 mg/kg in the data set on gastric acid secretion and 6.8 mg/kg in data set [3].
`CNC(=S)C(C(=O)OCC=C(C)C)c1ccccn1` (stereo not drawn) [Example 9, Prenyl 2-methylthiocarbamoyl-2-(2-pyridyl)acetate]: the results for the ED50 (with gastric acid secretion; in data set [3]) were 3.5 mg/kg and 1.1 mg/kg, respectively.
Take `C=CCNC(=S)C(C(=O)OCC)c1ccccn1` (stereo not drawn) [Example 3, Ethyl 2-allylthiocarbamoyl-2-(2-pyridyl)acetate]: in the data set on gastric acid secretion, it took a dose of 3.8 mg/kg to reach the 50% effect level (ED50).
Same read-out and setting: with `CNC(=S)C(C(=O)OCc1ccccc1)c1ccccn1` (stereo not drawn) [Example 8, Benzyl 2-methylthiocarbamoyl-2-(2-pyridyl)acetate] the figure was 12.3 mg/kg.
For `CNC(=S)C(C(=O)OC/C=C(\C)CCC=C(C)C)c1ccccn1` (stereo not drawn) [Example 12, Geranyl 2-methylthiocarbamoyl-2-(2-pyridyl)acetate], the ED50 in data set [1] turned out to be 0.8 mg/kg; in “Anti Stress Ulcer”, 5.3 mg/kg; in data set [4], 0.7 mg/kg; in data set [2], 0.6 mg/kg; in the data set with gastric acid secretion it was 5 mg/kg; in data set [3], 1.4 mg/kg. Besides, the 50% lethal dose (LD50) in the data set “Toxicity (LD50) in mouse” is more than 1300 mg/kg.
For the compound `CNC(=S)C(C(=O)OC/C=C(\C)CC/C=C(\C)CCC=C(C)C)c1ccccn1` (stereo not drawn) [Example 15, Farnesyl 2-methylthiocarbamoyl-2-(2-pyridyl)acetate], the values for the ED50 (in the data set with gastric acid secretion; in data set [3]) were 5.6 mg/kg and 0.3 mg/kg, respectively.
As to `CCOC(=O)C(C(=S)NC)c1ccccn1` (stereo not drawn) [Example 1, ethyl 2-methylthiocarbamoyl-2-(2-pyridyl)acetate], in the data set on gastric acid secretion, the ED50 stood at 2.4 mg/kg.
As to `CC(C)=CCC/C(C)=C/COC(=O)C(C(=S)Nc1ccccc1)c1ccccn1` (stereo not drawn) [Example 14, Geranyl 2-phenylthiocarbamoyl-2-(2-pyridyl)acetate], the ED50 in the data set with gastric acid secretion came to 36 mg/kg; in data set [3], 3.7 mg/kg.
Regarding `CCOC(=O)C(C(=S)NC1CCCCC1)c1ccccn1` (stereo not drawn) [Example 4, Ethyl 2-cyclohexylthiocarbamoyl-2-(2-pyridyl)acetate], in the data set with gastric acid secretion, the median effective dose (ED50) came out at 15.5 mg/kg.
Turning to `CC(C)=CCOC(=O)C(C(N)=S)c1ccccn1` (stereo not drawn) [Example 18, Prenyl 2-thiocarbamoyl-2-(2-pyridyl)acetate], the results for the ED50 (with gastric acid secretion; in data set [3]) were 7.8 mg/kg and 4.5 mg/kg, respectively.
In the case of `CCOC(=O)C(C(=S)NCCCO)c1ccccn1` (stereo not drawn) [Example 20, Ethyl 2-(3-hydroxypropyl)thiocarbamoyl-2(2-pyridyl)acetate], the ED50 in data set [3] came to 2.3 mg/kg.
As for `C=CCNC(=S)C(C(=O)OCC=C(C)C)c1ccccn1` (stereo not drawn) [Example 10, Prenyl 2-allylthiocarbamoyl-2-(2-pyridyl)acetate], the median effective dose (ED50) in the data set with gastric acid secretion was 4.4 mg/kg; in data set [3] it was 7.7 mg/kg.
In turn, `CCOC(=O)C(C(=S)Nc1ccccc1)c1ccccn1` (stereo not drawn) [Example 6, Ethyl 2-phenylthiocarbamoyl-2-(2-pyridyl)acetate] gave an LD50 in the data set “Toxicity (LD50) in mouse” of more than 1300 mg/kg. Further, the ED50 stood at 9.3 mg/kg with gastric acid secretion and 3.4 mg/kg in data set [3].
For the compound `CCOC(=O)C(C(=S)NCc1ccccn1)c1ccccn1` (stereo not drawn) [Example 24, Ethyl 2-(2-pyridyl)methylthiocarbamoyl-2(2-pyridyl)acetate], the ED50 in the data set on gastric acid secretion amounted to 6.4 mg/kg.
